Consider 14 compounds from patent US9670142B2, “1,3-diaminocyclopentane carboxamide derivatives” (Merck Patent GmbH, priority 2013, dated 2017).

One may read the IC50 as the midpoint of a concentration-inhibition curve.

Structures are written as SMILES. A value given as a limit tells only on which side of the number the result lay.

The target of the test is human fatty acid synthase FASN (Homo sapiens (Human), UniProt P49327). Description: Biochemical activity testing of human fatty acid synthase FASN (NADPH fluorescence intensity enzyme assay). The conditions noted are these: human recombinant full-length fatty acid synthase. In short, it runs like this: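 In-house Sf9-expressed full-length enzyme (3 μL of 40 nM) in 50 mM potassium phosphate pH 7.0 with glutathione, BSA and Tween-20, plus NADPH (2 μL of 200 μM), preincubated ≥15 min with compound (10 concentrations from 30 μM final, 1% DMSO). Acetyl-CoA/malonyl-CoA added; NADPH fluorescence (ex 340/em 460 nm) read before and after 30 min at room temperature, difference used for IC50.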
human fatty acid synthase FASN, sequence (P49327 whole entry): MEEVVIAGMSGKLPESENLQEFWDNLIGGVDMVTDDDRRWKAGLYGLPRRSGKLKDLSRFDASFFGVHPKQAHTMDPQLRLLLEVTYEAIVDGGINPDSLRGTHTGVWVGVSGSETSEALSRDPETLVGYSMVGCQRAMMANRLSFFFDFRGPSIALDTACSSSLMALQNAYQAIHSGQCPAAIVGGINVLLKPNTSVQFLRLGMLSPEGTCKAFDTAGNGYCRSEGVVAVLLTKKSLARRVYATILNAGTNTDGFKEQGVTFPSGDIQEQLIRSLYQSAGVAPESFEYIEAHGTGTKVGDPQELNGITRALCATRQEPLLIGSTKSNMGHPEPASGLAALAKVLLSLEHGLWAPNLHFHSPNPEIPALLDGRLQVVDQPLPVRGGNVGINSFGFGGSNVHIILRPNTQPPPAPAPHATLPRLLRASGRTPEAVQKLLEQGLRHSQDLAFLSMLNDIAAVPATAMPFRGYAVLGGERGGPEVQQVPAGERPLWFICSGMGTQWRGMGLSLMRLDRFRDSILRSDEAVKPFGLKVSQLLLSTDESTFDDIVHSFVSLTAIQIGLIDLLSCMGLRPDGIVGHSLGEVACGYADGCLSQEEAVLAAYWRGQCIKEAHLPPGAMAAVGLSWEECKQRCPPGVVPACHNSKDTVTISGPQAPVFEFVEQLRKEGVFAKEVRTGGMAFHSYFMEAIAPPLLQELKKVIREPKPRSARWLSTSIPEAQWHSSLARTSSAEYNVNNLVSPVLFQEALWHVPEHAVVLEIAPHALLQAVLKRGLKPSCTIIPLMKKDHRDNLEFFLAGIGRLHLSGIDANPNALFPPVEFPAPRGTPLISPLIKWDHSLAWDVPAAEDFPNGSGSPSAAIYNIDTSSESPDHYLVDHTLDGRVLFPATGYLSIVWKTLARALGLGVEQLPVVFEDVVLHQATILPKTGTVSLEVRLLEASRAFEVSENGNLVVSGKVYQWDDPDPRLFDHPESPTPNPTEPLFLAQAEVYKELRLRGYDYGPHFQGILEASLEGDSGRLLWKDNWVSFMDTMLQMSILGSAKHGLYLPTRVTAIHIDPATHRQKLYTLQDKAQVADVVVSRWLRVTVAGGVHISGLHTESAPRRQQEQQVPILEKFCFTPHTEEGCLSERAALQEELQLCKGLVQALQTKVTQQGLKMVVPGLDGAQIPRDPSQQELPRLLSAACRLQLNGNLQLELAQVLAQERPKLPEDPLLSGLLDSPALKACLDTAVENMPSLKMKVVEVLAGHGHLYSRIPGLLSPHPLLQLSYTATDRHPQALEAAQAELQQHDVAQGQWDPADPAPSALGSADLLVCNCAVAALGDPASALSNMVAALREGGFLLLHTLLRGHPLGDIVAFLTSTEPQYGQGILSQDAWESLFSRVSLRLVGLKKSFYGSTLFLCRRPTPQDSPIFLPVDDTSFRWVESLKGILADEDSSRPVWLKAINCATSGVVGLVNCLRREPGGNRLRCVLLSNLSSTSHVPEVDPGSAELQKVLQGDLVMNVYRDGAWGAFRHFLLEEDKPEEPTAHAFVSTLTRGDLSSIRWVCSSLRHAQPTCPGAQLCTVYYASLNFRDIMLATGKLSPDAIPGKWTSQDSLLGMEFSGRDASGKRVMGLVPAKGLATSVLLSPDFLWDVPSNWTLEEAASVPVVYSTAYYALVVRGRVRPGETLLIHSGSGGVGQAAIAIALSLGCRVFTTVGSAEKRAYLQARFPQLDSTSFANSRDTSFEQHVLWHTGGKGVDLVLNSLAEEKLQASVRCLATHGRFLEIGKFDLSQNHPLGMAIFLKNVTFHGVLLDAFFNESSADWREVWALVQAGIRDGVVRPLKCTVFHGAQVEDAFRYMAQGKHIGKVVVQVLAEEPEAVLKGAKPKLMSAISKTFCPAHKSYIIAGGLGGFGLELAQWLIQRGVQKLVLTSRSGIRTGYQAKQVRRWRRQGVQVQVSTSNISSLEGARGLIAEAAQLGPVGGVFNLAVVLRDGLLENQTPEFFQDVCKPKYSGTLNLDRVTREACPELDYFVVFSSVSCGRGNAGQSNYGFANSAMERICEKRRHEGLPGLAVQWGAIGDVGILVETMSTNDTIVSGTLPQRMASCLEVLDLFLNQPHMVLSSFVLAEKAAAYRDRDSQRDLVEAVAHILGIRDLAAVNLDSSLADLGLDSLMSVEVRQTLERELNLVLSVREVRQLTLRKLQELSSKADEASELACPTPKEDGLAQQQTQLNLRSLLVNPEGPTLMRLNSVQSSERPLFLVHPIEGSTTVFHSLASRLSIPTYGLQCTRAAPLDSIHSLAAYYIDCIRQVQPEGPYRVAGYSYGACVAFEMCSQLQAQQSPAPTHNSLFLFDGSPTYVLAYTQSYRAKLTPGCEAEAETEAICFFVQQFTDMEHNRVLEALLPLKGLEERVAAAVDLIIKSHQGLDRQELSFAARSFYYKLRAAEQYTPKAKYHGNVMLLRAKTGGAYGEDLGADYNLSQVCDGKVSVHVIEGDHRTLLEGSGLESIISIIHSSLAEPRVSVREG
As for `CCCCC(=O)N[C@H]1CC[C@@H](N(C)C(=O)c2ccc(-c3nc4ccccc4o3)cc2)C1` [Compound A24, 4-benzoxazol-2-yl-N-methyl-N-((1R,3S)-3-pentanoylamino-cyclopentyl)-benzamide], the IC50 was less than 300 nM.

For `CC[C@@H](C)CC(=O)N[C@@H]1CC[C@@H](N(C)C(=O)c2ccc(-c3nc4ccccc4o3)cc2)C1` [Compound A168, 4-benzoxazol-2-yl-N-methyl-N-[(1R,3R)-3-((R)-3-methyl-pentanoylamino)-cyclopentyl]-benzamide], the IC50 lay in the range of 3000 to 50000 nM.

`CN(C(=O)c1ccc(-c2nc3cc(Cl)ccc3o2)cc1)[C@@H]1CC[C@H](NC(=O)[C@@H]2CCCO2)C1` [Compound A174]: the IC50 was less than 300 nM.

On to `CCC(=O)N[C@H]1CC[C@@H](N(C)C(=O)c2ccc(-c3ccc4[nH]ccc4c3)c(F)c2)C1` [Compound A112, 3-fluoro-4-(1H-indol-5-yl)-N-methyl-N-((1R,3S)-3-propionylamino-cyclopentyl)-benzamide], for which the IC50 was less than 300 nM.

Turning to `CCC(=O)N[C@H]1CC[C@@H](N(C)C(=O)c2ccc(-c3cc4cn[nH]c4cc3C)cc2)C1` [Compound A102, N-methyl-4-(6-methyl-1H-indazol-5-yl)-N-((1R,3S)-3-propionylamino-cyclopentyl)-benzamide], the IC50 was less than 300 nM.

For `CN(C(=O)c1ccc(-c2nc3ccccc3o2)cc1)[C@@H]1CC[C@H](NC(=O)C2CC2)C1` [Compound A2, 4-benzoxazol-2-yl-N-[(1R,3S)-3-(cyclopropanecarbonyl-amino)-cyclopentyl]-N-methyl-benzamide], the IC50 is less than 300 nM.

As to `CN(C(=O)c1ccc(-c2nc3ccccc3o2)cc1)[C@@H]1CC[C@@H](NC(=O)Cc2ccccc2)C1` [Compound A167, 4-benzoxazol-2-yl-N-methyl-N-((1R,3R)-3-phenylacetylamino-cyclopentyl)-benzamide], the IC50 was in the range of 3000 to 50000 nM.

`CCC(=O)N[C@H]1CC[C@@H](N(C)C(=O)c2ccc(-c3ccc4[nH]nc(C)c4c3)cn2)C1` [Compound A105, 5-(3-methyl-1H-indazol-5-yl)-pyridine-2-carboxylic acid methyl-((1R,3S)-3-propionylamino-cyclopentyl)-amide]: the concentration for half-maximal inhibition (IC50) is less than 300 nM.

With `CCC(=O)N[C@H]1CC[C@@H](N(C)C(=O)c2ccc(-c3ccc4[nH]cnc4c3)cc2)C1` [Compound A76, 4-(1H-benzimidazol-5-yl)-N-methyl-N-((1R,3S)-3-propionylamino-cyclopentyl)-benzamide], the concentration for half-maximal inhibition (IC50) was less than 300 nM.

Take `CCC(=O)N[C@H]1CC[C@@H](N(C)C(=O)c2ccc(-c3ccc4[nH]cc(C(N)=O)c4c3)c(F)c2)C1` [Compound A160, 5-{2-fluoro-4-[methyl-((1R,3S)-3-propionylamino-cyclopentyl)-carbamoyl]-phenyl}-1H-indole-3-carboxylic acid amide]: the IC50 was less than 300 nM.

Regarding `CCC(=O)N[C@H]1CC[C@@H](N(C)C(=O)c2ccc(-c3ccc4[nH]nc(C)c4c3)cc2)C1` [Compound A100, N-methyl-4-(3-methyl-1H-indazol-5-yl)-N-((1R,3S)-3-propionylamino-cyclopentyl)-benzamide], the half-inhibitory concentration (IC50) was less than 300 nM.

As for `CO[C@@H](C)C(=O)N[C@H]1CC[C@@H](N(C)C(=O)c2ccc(-c3nc4ccccc4o3)cc2)C1` [Compound A33, 4-benzoxazol-2-yl-N-[(1R,3S)-3-((S)-2-methoxy-propionylamino)-cyclopentyl]-N-methyl-benzamide], the IC50 is less than 300 nM.

For `CCC(C)CC(=O)N[C@H]1CC[C@@H](N(C)C(=O)c2ccc(-c3nc4ccccc4o3)cc2)C1` (stereo partly drawn) [Compound A26, 4-benzoxazol-2-yl-N-methyl-N-[(1R,3S)-3-(3-methyl-pentanoylamino)-cyclopentyl]-benzamide], the IC50 was less than 300 nM.

On to `CCC(=O)N[C@H]1CC[C@@H](N(C)C(=O)c2ccc(-c3ccc4[nH]ccc4c3)cc2)C1` [Compound A95, 4-(1H-indol-5-yl)-N-methyl-N-((1R,3S)-3-propionylamino-cyclopentyl)-benzamide], for which the IC50 is less than 300 nM.
